Like-named read-outs stand apart in the source and are kept apart here.
What was measured:
[1] = BACE cell assay: soluble Amyloid Beta 1-40 (Aβ 1-40) in culture media of H4-APPsw cells; assay type: cell-based
Procedure: H4 neuroglioma cell line that stably expresses Amyloid Precursor Protein (APP) containing the KM-NL Swedish mutation (H4-APPsw) was generated. For the assay, cells are treated overnight in the presence of inhibitor and the culture media are subjected to ELISA analysis of soluble Amyloid Beta 1-40 (Aβ 1-40).
H4 neuroglioma cell line was cultured in DMEM with 10% FBS and 1% penicillin/streptomycin (Culture Medium) at 37° C., 5% CO2. […] 24 hrs after transfection, the cells were replaced into three new plates (150 mm) in fresh Culture Medium with 250 ug/ml Zeocin. […] The levels of APPsw expression were analyzed by immunoblotting and the production of Aβ 1-40 was detected by ELISA of culture supernatants. The selected clones are maintained in Culture Medium with 250 μg/ml Zeocin and routinely split in 3-4 days to maintain 20-80% confluence.
Split cells. Split H4-APPsw cells in Culture Medium and culture overnight such that cells will be ˜80% confluent next morning.
Create Compound Dilution Plate. After determining the desired final concentration of compound to be tested, create a 500× dilution plate. Add DMSO, but not inhibitor, to each well of Column 1. […] Add compounds of interest at 500× desired final concentration to wells A3-A10. Add DMSO, but not inhibitor, to each well of Columns 11 and 12. Dilute contents of Row A 1:3 in Row B. then continue through Rows C—H.
Create Media Plate. To create a 2× solution of compound in media, add 996 μL Culture Medium to each well of a 96-well 2 ml deep well plate (Media Plate) in biosafety hood. Add 4 μL 5 mM control compound to Media Plate wells A1-D1 for determination of full inhibition.
Add media to Cell Plate. With a multichannel pipettor, mix each well of Media Plate several times to insure homogeneity. Add 100 μL of mixture to Black polymer bottom P-D-L plates. Next, place Medium Plate and Cell Plate in the incubator.
Add cells to Cell Plate. Trypsinize and count H4-APPsw cells. Dilute cells 6×10^5 cells/ml in Culture Medium and remove Cell Plate from incubator. Vortex cells to homogeneity, then using a multichannel repeating pipettor, add 100 μL cell suspension to Cell Plate, adding cells from Row H to Row A. Place Cell Plate in incubator.
Change media in Cell Plate. After 5 h, check Cell Plate by microscope to insure cells are attached. In culture hood, remove media from Cell Plate using multichannel repeating pipettor. Add 100 μl Culture Medium to each well. Remove Media Plate from incubator and mix with pipettor as previous. Add 100 μl from each well of Media Plate to corresponding well in Cell Plate. Place Cell Plate in incubator overnight.
Perform ELISA to determine levels of secreted Aβ 1-40. After 16 h incubation, spin Cell Plate for 8 min at 1200 rpm. The primary reading of Aβ 1-40 levels is done using PerkinElmer AlphaLISA technology. Follow the manufacturer's protocol for performing AlphaLISA in a white ½ area Optiwell plate using Row 12 for peptide standard (1:2 dilutions, starting at 15 ng/ml). Data are acquired using PerkinElmer Fusion-Alpha FP-HT, Alpha protocol (Count Time 0.6 s, Count Time Ratio 30%:70%).
Export data from Fusion using Columnar Report format into a separate file for each plate. Upload data into Activity Base using RIA-DOSE-RESPONSE protocol (Version 1). Data from at least eight doses were fitted to a four parameter logistical model using XLfit software to determine potency.

[2] = biological target: T1, truncated human beta-secretase (residues 1-458, His6-tagged at the C-terminus) (Homo sapiens, UniProt P56817); assay: BACE fluorescence quench assay; assay type: biochemical; settings: in vitro enzyme activity, BACE fluorescence assay, pH 4.5; read-out: IC50
T1 construct: truncated human beta-secretase (residues 1-458, His6-tagged at the C-terminus); His6 (C); made in house; host or cells: insect cells D. melanogaster S2 (baculovirus expression system (so in the source))
T1 sequence (P56817 22-458): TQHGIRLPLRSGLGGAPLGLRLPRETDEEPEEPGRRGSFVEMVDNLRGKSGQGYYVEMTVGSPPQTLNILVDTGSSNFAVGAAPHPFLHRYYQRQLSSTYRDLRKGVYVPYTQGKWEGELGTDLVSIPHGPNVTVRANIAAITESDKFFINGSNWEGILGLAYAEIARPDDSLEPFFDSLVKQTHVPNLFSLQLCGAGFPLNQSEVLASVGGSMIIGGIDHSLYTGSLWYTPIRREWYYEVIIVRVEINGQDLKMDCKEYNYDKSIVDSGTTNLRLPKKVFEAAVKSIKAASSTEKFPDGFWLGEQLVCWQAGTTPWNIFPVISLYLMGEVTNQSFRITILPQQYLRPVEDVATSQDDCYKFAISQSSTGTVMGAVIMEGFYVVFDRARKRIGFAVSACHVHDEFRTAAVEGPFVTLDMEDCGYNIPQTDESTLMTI

[3] = in vitro cell activity, H4-APPsw cells, secreted Aβ 1-40, overnight treatment, read-out: IC50

Row | SMILES | IC50 [1, 3] [µM] | IC50 [2] [µM] | IC50 [1] [µM]
1 | CN1OC2(CC3(CCc4ccccc4C3)Oc3ccc(-c4cccc(C#N)c4)cc32)N=C1N (stereo not drawn) [Compound 324] | 5 to 10 | 0.1 to 0.5 | –
2 | CN1OC2(CC3(CCCc4ccccc43)Oc3ccc(-c4cc(F)cc(F)c4)cc32)N=C1N (stereo not drawn) [Compound 402] | – | 1 to 5 | 10 to 50
3 | CN1O[C@]2(C[C@@H]([C@H]3CCCOC3)Oc3ccc(-c4cc(F)cc(F)c4)cc32)N=C1N [Compound 348] | 5 to 10 | 0.5 to 1 | –
4 | Cc1cc2c(cc1-c1cccc(C#N)c1)C1(CC3(CCCOC3)O2)N=C(N)N(C)O1 (stereo not drawn) [Compound 432, 3-(3″-amino-2″,7-dimethyl-2″H-spiro[spiro[chroman-2,1′-(3-oxacyclohexane)]-4,5′-[1,2,4]oxadiazole]-6-yl)benzonitrile] | 10 to 50 | 5 to 10 | –
5 | CN1OC2(C[C@]3(CC4CCC3OC4)Oc3ccc(-c4cccc(C#N)c4)cc32)N=C1N (single isomer, unassigned) [Compound 403] | 5 to 10 | 1 to 5 | –
6 | COc1cccc2c1CCCC1(C2)CC2(N=C(N)N(C)O2)c2cc(Br)ccc2O1 (stereo not drawn) [Compound 373] | 5 to 10 | 0.5 to 1 | –
7 | CN1O[C@]2(C[C@H]([C@@H]3CCCOC3)Oc3ccc(-c4cc(F)cc(F)c4)cc32)N=C1N (racemic) [Compound 322, (2S,4R/2R,4S)-6-(3,5-difluorophenyl)-2′-methyl-2-((S/R)-tetrahydro-2H-pyran-3-yl)-2′H-spiro[chroman-4,5′-[1,2,4]oxadiazol]-3′-amine] | 5 to 10 | 0.1 to 0.5 | –
8 | CN1OC2(C[C@H]([C@@H]3CCOC(C)(C)C3)Oc3ccc(-c4cc(F)cc(Cl)c4)cc32)N=C1N (stereo partly drawn) [Compound 299] | 1 to 5 | 0.1 to 0.5 | –
9 | CN1OC2(CC3(CCCc4ccccc4C3)Oc3ccc(C#CC4CCCC4)cc32)N=C1N (stereo not drawn) [Compound 317] | 1 to 5 | 0.1 to 0.5 | –
10 | CN1O[C@]2(C[C@H]([C@H]3CCCOC3)Oc3ccc(-c4cc(F)cc(F)c4)cc32)N=C1N (racemic) [Compound 316, (±)-(2S,4R)-6-(3,5-difluorophenyl)-2′-methyl-2-((R)-tetrahydro-2H-pyran-3-yl)-2′H-spiro[chroman-4,5′-[1,2,4]oxadiazol]-3′-amine] | 5 to 10 | 0.1 to 0.5 | –
11 | CN1OC2(C[C@H]([C@@H]3CCOC(C)(C)C3)Oc3ccc(-c4cccc(C#N)c4F)cc32)N=C1N (stereo partly drawn) [Compound 306] | 1 to 5 | 0.1 to 0.5 | –
12 | CN1OC2(C[C@@H](C34CCC(CC3)OC4)Oc3ccc(-c4cccc(C#N)c4)cc32)N=C1N (stereo partly drawn) [Compound 305] | 5 to 10 | 0.1 to 0.5 | –
13 | CN1OC2(C[C@H]([C@H]3CCOC(C)(C)C3)Oc3ccc(-c4cc(F)cc(Cl)c4)cc32)N=C1N (stereo partly drawn) [Compound 295] | 1 to 5 | 0.1 to 0.5 | –
14 | CN1OC2(CC3(CCCN(c4ccccc4)C3)Oc3ccc(-c4cccc(C#N)c4)cc32)N=C1N (stereo not drawn) [Compound 355] | 5 to 10 | 0.5 to 1 | –
15 | CN1OC2(CC(C3CCOC(C)(C)C3)Oc3ccc(-c4cccc(C(F)(F)F)c4)cc32)N=C1N (stereo not drawn) [Compound 297] | 1 to 5 | 0.1 to 0.5 | –
16 | CN1OC2(C[C@H](C34CCC(CC3)OC4)Oc3ccc(-c4cccc(C#N)c4)cc32)N=C1N (stereo partly drawn) [Compound 345] | 5 to 10 | 0.1 to 0.5 | –
17 | CN1C(=O)C2(CC3(CCCOC3)Oc3ccc(-c4cccc(C(F)(F)F)c4)cc32)N=C1N (stereo not drawn) [Compound 338] | 1 to 5 | 0.1 to 0.5 | –
18 | CN1C(=O)C2(CC([C@H]3CCCc4ccccc43)Oc3ccc(-c4cccc(C#N)c4)cc32)N=C1N (stereo in doubt) [Compound 335, 3-(2′-amino-1′-methyl-5′-oxo-2-(1,2,3,4-tetrahydronaphthalen-1-yl)-1′,5′-dihydrospiro[chroman-4,4′-imidazole]-6-yl)benzonitrile] | 5 to 10 | 0.1 to 0.5 | –
19 | CN1OC2(C[C@@]3(CC4CCC3OC4)Oc3ccc(-c4cccc(C#N)c4)cc32)N=C1N (single isomer, unassigned) [Compound 408] | 5 to 10 | 1 to 5 | –
20 | CN1OC2(CC3(CCCc4ncccc43)Oc3ccc(-c4cccc(C#N)c4)cc32)N=C1N (stereo not drawn) [Compound 320] | 1 to 5 | 0.1 to 0.5 | –
21 | CN1O[C@@]2(C[C@H](C3CCOc4ccccc43)Oc3ccc(-c4cccc(C#N)c4)cc32)N=C1N (stereo partly drawn) [Compound 331] | 5 to 10 | 0.1 to 0.5 | –
22 | CN1OC2(CC3(CCCc4ccccc4C3)Oc3ccc(-c4cccc(C#N)c4)cc32)N=C1N (stereo not drawn) [Compound 217] | – | – | 0.1 to 0.5

Now from value to molecule, other results behind:

Row | IC50 [1, 3] [µM] | IC50 [2] [µM] | SMILES | IC50 [1] [µM]
23 | 0.1 to 0.5 | 0.1 to 0.5 | CN1C(=O)C2(CC3(CCCOC3)Oc3ccc(-c4cc(C#N)ccc4F)cc32)N=C1N (stereo not drawn) [Compound 288] | –
24 | 1 to 5 | 0.1 to 0.5 | CN1O[C@]2(C[C@H]([C@H]3CCOC(C)(C)C3)Oc3ccc(-c4cccc(C#N)c4)cc32)N=C1N [Compound 293] | –
25 | 1 to 5 | 1 to 5 | CN1OC2(CC3(CC4CCC3OC4)Oc3ccc(-c4cccc(C#N)c4)cc32)N=C1N (single isomer, unassigned) [Compound 379] | –
26 | 1 to 5 | 0.1 to 0.5 | CC1CC[C@]2(CO1)C[C@]1(N=C(N)N(C)O1)c1cc(-c3cccc(Cl)c3)ccc1O2 (stereo partly drawn) [Compound 303] | –
27 | 1 to 5 | 0.1 to 0.5 | COc1cc(OC)cc(-c2ccc3c(c2)[C@]2(C[C@@]4(CCCOC4)O3)N=C(N)N(C)C2=O)c1 [Compound 333] | –
28 | 1 to 5 | 0.1 to 0.5 | CN1OC2(CC3(CCC(c4ccccc4)CC3)Oc3ccc(-c4cccc(C#N)c4)cc32)N=C1N (stereo not drawn) [Compound 313] | –
29 | 0.5 to 1 | 0.1 to 0.5 | CN1C(=O)C2(CC3(CCCOC3)Oc3ccc(-c4cccc(Cl)c4)cc32)N=C1N (stereo not drawn) [Compound 290] | –
30 | 1 to 5 | 0.1 to 0.5 | CC1CC[C@]2(CO1)C[C@]1(N=C(N)N(C)O1)c1cc(-c3ccc(F)c(Cl)c3)ccc1O2 (stereo partly drawn) [Compound 330] | –
31 | 1 to 5 | 0.1 to 0.5 | CN1C(=O)C2(C[C@@H](C3CCCc4ccccc43)Oc3ccc(-c4cccc(C#N)c4)cc32)N=C1N (stereo in doubt) [Compound 282, 3-(2′-amino-1′-methyl-5′-oxo-2-(1,2,3,4-tetrahydronaphthalen-1-yl)-1′,5′-dihydrospiro[chroman-4,4′-imidazole]-6-yl)benzonitrile] | –
32 | 1 to 5 | 0.5 to 1 | CN1OC2(CC3(CCCc4ccccc4C3)Oc3ccc(Br)cc32)N=C1N (stereo not drawn) [Compound 349] | –
33 | 1 to 5 | 0.1 to 0.5 | CC1CC[C@]2(CO1)C[C@]1(N=C(N)N(C)O1)c1cc(-c3cc(F)cc(Cl)c3)ccc1O2 (stereo partly drawn) [Compound 298] | –
34 | 0.1 to 0.5 | 0.1 to 0.5 | Cc1ccc(F)cc1-c1ccc2c(c1)[C@]1(C[C@]3(CCCOC3)O2)N=C(N)N(C)C1=O [Compound 287] | –
35 | 0.5 to 1 | 0.1 to 0.5 | CN1C(=O)C2(CC3(CCCOC3)Oc3ccc(-c4cc(F)cc(F)c4)cc32)N=C1N (stereo not drawn) [Compound 314] | –
36 | 0.5 to 1 | 0.1 to 0.5 | COc1ccc2c(c1)CCC[C@@]1(C2)C[C@@]2(N=C(N)N(C)O2)c2cc(-c3cccc(C#N)c3)ccc2O1 [Compound 311] | –
37 | 0.1 to 0.5 | 0.1 to 0.5 | CN1C(=O)[C@@]2(C[C@]3(CCCOC3)Oc3ccc(-c4cc(F)cc(F)c4F)cc32)N=C1N [Compound 280] | –
38 | 0.001 to 0.1 | – | CN1C(=O)[C@@]2(C[C@]3(CCCOC3)Oc3ccc(-c4cc(Cl)cc(Cl)c4)cc32)N=C1N [Compound 202] | –
39 | 0.5 to 1 | – | Cc1cc(C)cc(-c2ccc3c(c2)[C@]2(C[C@]4(CCCOC4)O3)N=C(N)N(C)C2=O)c1 [Compound 276] | –

Source: patent US8450308B2 (Vitae Pharmaceuticals, Inc., priority 2008, dated 2013)
